Blank lines part the entries; values can stand above or below the molecule they belong to.
Columns and labels:
HT-1080 = test: Antiproliferative activity against human HT-1080 cells assessed as cell growth inhibition incubated for 72 hrs by MTT assay; assay type: functional, cell-based; conditions: HT-1080, 72 h
MCF7 = test: Antiproliferative activity against human MCF7 cells assessed as cell growth inhibition incubated for 72 hrs by MTT assay; assay type: functional, cell-based; conditions: MCF7, 72 h
SGC-7901 [1] = test: Antiproliferative activity against human SGC-7901 cells assessed as cell growth inhibition incubated for 72 hrs by MTT assay; assay type: functional, cell-based; conditions: SGC-7901, 72 h
4T1 = test: Antitumor activity against mouse 4T1 cells allografted in Balb/c mouse assessed as tumor weight at 5 mg/kg, iv administered every other day measured after 12 days (reference value: 448 mg); assay type: functional; conditions: time 12 day
Tubulin (Homo sapiens) = Tubulin (Homo sapiens) (UniProt P68371+Q9H4B7+P0DPH7+P68366+Q13509+Q71U36+P04350+Q3ZCM7+P07437+P68363+Q9BQE3+Q6PEY2+Q13885+Q9BVA1+Q9BUF5); test: Binding affinity to tubulin (unknown origin) at colchicine binding site assessed as tubulin-colchicine complex competition rate at 1.25 uM preincubated for 45 mins followed by colchicine addition by fluorescence based assay relative to control; assay type: protein-complex assay
SGC-7901 [2] = test: Induction of cell cycle arrest in human SGC-7901 cells assessed as accumulation at S phase at 2 times IC50 incubated for 12 hrs by PI/RNase staining based flow cytometry (reference value: 44 %); assay type: functional
SGC-7901 [3] = test: Induction of cell cycle arrest in human SGC-7901 cells assessed as accumulation at G2/M phase at 2 times IC50 incubated for 72 hrs by PI/RNase staining based flow cytometry (reference value: 9 %); assay type: functional
SGC-7901 [4] = test: Induction of cell cycle arrest in human SGC-7901 cells assessed as accumulation at G2/M phase at 2 times IC50 incubated for 48 hrs by PI/RNase staining based flow cytometry (reference value: 9 %); assay type: functional
SGC-7901 [5] = test: Induction of cell cycle arrest in human SGC-7901 cells assessed as accumulation at S phase at 2 times IC50 incubated for 6 hrs by PI/RNase staining based flow cytometry (reference value: 44 %); assay type: functional
SGC-7901 [6] = test: Induction of cell cycle arrest in human SGC-7901 cells assessed as accumulation at G0/G1 phase at 2 times IC50 incubated for 12 hrs by PI/RNase staining based flow cytometry (reference value: 41 %); assay type: functional
SGC-7901 [7] = test: Induction of cell cycle arrest in human SGC-7901 cells assessed as accumulation at sub-G1 phase at 2 times IC50 incubated for 72 hrs by PI/RNase staining based flow cytometry (reference value: 6 %); assay type: functional
SGC-7901 [8] = test: Induction of cell cycle arrest in human SGC-7901 cells assessed as accumulation at S phase at 2 times IC50 incubated for 48 hrs by PI/RNase staining based flow cytometry (reference value: 44 %); assay type: functional
SGC-7901 [9] = test: Induction of cell cycle arrest in human SGC-7901 cells assessed as accumulation at S phase at 2 times IC50 incubated for 72 hrs by PI/RNase staining based flow cytometry (reference value: 44 %); assay type: functional
SGC-7901 [10] = test: Induction of cell cycle arrest in human SGC-7901 cells assessed as accumulation at G2/M phase at 2 times IC50 incubated for 24 hrs by PI/RNase staining based flow cytometry (reference value: 9 %); assay type: functional
SGC-7901 [11] = test: Induction of cell cycle arrest in human SGC-7901 cells assessed as accumulation at G0/G1 phase at 2 times IC50 incubated for 24 hrs by PI/RNase staining based flow cytometry (reference value: 41 %); assay type: functional
[12] = Selectivity index, ratio of IC50 for HUVEC cells to IC50 for human SGC-7901 cells; assay type: functional
SGC-7901 [13] = test: Induction of cell cycle arrest in human SGC-7901 cells assessed as accumulation at G0/G1 phase at 2 times IC50 incubated for 6 hrs by PI/RNase staining based flow cytometry (reference value: 41 %); assay type: functional
SGC-7901 [14] = test: Induction of cell cycle arrest in human SGC-7901 cells assessed as accumulation at sub-G1 phase at 2 times IC50 incubated for 6 hrs by PI/RNase staining based flow cytometry (reference value: 6 %); assay type: functional
SGC-7901 [15] = test: Induction of cell cycle arrest in human SGC-7901 cells assessed as accumulation at sub-G1 phase at 2 times IC50 incubated for 24 hrs by PI/RNase staining based flow cytometry (reference value: 6 %); assay type: functional
SGC-7901 [16] = test: Induction of cell cycle arrest in human SGC-7901 cells assessed as accumulation at S phase at 2 times IC50 incubated for 24 hrs by PI/RNase staining based flow cytometry (reference value: 44 %); assay type: functional
SGC-7901 [17] = test: Induction of cell cycle arrest in human SGC-7901 cells assessed as accumulation at sub-G1 phase at 2 times IC50 incubated for 12 hrs by PI/RNase staining based flow cytometry (reference value: 6 %); assay type: functional
[18] = Cytotoxicity against HUVEC cells assessed as cell growth inhibition incubated for 72 hrs by MTT assay; assay type: toxicity, cell-based; conditions: human
SGC-7901 [19] = test: Induction of cell cycle arrest in human SGC-7901 cells assessed as accumulation at G2/M phase at 2 times IC50 incubated for 6 hrs by PI/RNase staining based flow cytometry (reference value: 9 %); assay type: functional
SGC-7901 [20] = test: Induction of cell cycle arrest in human SGC-7901 cells assessed as accumulation at sub-G1 phase at 2 times IC50 incubated for 48 hrs by PI/RNase staining based flow cytometry (reference value: 6 %); assay type: functional
SGC-7901 [21] = test: Induction of cell cycle arrest in human SGC-7901 cells assessed as accumulation at G0/G1 phase at 2 times IC50 incubated for 72 hrs by PI/RNase staining based flow cytometry (reference value: 41 %); assay type: functional
SGC-7901 [22] = test: Induction of cell cycle arrest in human SGC-7901 cells assessed as accumulation at G0/G1 phase at 2 times IC50 incubated for 48 hrs by PI/RNase staining based flow cytometry (reference value: 41 %); assay type: functional
SGC-7901 [23] = test: Induction of cell cycle arrest in human SGC-7901 cells assessed as accumulation at G2/M phase at 2 times IC50 incubated for 12 hrs by PI/RNase staining based flow cytometry (reference value: 9 %); assay type: functional

Structure (SMILES): Nc1ccn([C@@H]2O[C@H](CO)[C@@H](O)C2(F)F)c(=O)n1 [GEMCITABINE]
- Activity (4T1): 17.02 mg

Structure (SMILES): COc1cc(-c2nc3scc(-c4ccc(Cl)cc4)n3n2)cc(OC)c1OC
- IC50 (HT-1080): 3.75 µM
- IC50 (MCF7): 4.64 µM
- IC50 (SGC-7901 [1]): 2.19 µM

Structure (SMILES): COc1ccc(-c2csc3nc(-c4cc(OC)c(OC)c(OC)c4)nn23)cc1OC
- IC50 (HT-1080): 11.7 µM
- IC50 (MCF7): 5.88 µM
- IC50 (SGC-7901 [1]): 3.69 µM

Structure (SMILES): COc1ccc(/C=C\c2cc(OC)c(OC)c(OC)c2)cc1O
- Activity (Tubulin (Homo sapiens)): 23.8%

Structure (SMILES): COc1ccc(-c2csc3nc(-c4cc(OC)c(OC)c(OC)c4)nn23)cc1
- IC50 (HT-1080): 3.76 µM
- IC50 (MCF7): 8.28 µM
- IC50 (SGC-7901 [1]): 6.19 µM

Structure (SMILES): COc1cc(-c2nc3scc(-c4ccc(F)cc4)n3n2)cc(OC)c1OC
- IC50 (HT-1080): > 30 µM
- IC50 (MCF7): > 30 µM
- IC50 (SGC-7901 [1]): > 30 µM

Structure (SMILES): COc1cc(-c2nc3scc(-c4ccc(Br)cc4)n3n2)cc(OC)c1OC
- IC50 (HT-1080): 7.49 µM
- IC50 (MCF7): 6.88 µM
- IC50 (SGC-7901 [1]): 5.82 µM

Structure (SMILES): COc1cc2c(c(OC)c1OC)-c1ccc(OC)c(=O)cc1[C@@H](NC(C)=O)CC2 [COLCHICINE]
- Activity (SGC-7901 [2]): 16%
- Activity (SGC-7901 [3]): 50%
- Activity (SGC-7901 [4]): 72%
- Activity (SGC-7901 [5]): 42%
- Activity (SGC-7901 [6]): 20%
- Activity (SGC-7901 [7]): 41%
- Activity (SGC-7901 [8]): 12%
- Activity (SGC-7901 [9]): 8%
- Activity (SGC-7901 [10]): 64%
- Activity (SGC-7901 [11]): 10%
- IC50 (HT-1080): 0.073 µM
- Ratio IC50 [12]: 1.91
- Activity (SGC-7901 [13]): 33%
- Activity (SGC-7901 [14]): 9%
- Activity (SGC-7901 [15]): 14%
- Activity (SGC-7901 [16]): 12%
- IC50 (MCF7): 0.068 µM
- Activity (SGC-7901 [17]): 12%
- IC50 at 72 h [18]: 0.21 µM
- Activity (SGC-7901 [19]): 16%
- IC50 (SGC-7901 [1]): 0.11 µM
- Activity (SGC-7901 [20]): 16%
- Activity (SGC-7901 [21]): 1%
- Activity (SGC-7901 [22]): 0%
- Activity (SGC-7901 [23]): 52%

Structure (SMILES): COc1cc(-c2nc3scc(-c4ccc([N+](=O)[O-])cc4)n3n2)cc(OC)c1OC
- IC50 (HT-1080): 4.3 µM
- IC50 (MCF7): > 30 µM
- IC50 (SGC-7901 [1]): 3.03 µM

Structure (SMILES): COc1ccc(-c2csc3nc(-c4cc(OC)c(OC)c(OC)c4)nn23)cc1F
- IC50 (HT-1080): 3.79 µM
- IC50 (MCF7): 5.08 µM
- IC50 (SGC-7901 [1]): 10 µM

Structure (SMILES): COc1ccccc1-c1csc2nc(-c3cc(OC)c(OC)c(OC)c3)nn12
- IC50 (HT-1080): 7.55 µM
- IC50 (MCF7): 4.99 µM
- IC50 (SGC-7901 [1]): 7.25 µM

Further molecules by falling IC50 (HT-1080), results first:

- IC50 (HT-1080): 3.64 µM
- IC50 (MCF7): 4.38 µM
- IC50 (SGC-7901 [1]): 0.88 µM
Structure (SMILES): COc1cc(-c2nc3scc(-c4ccccc4)n3n2)cc(OC)c1OC

- IC50 (HT-1080): 3.38 µM
- IC50 (MCF7): 7.48 µM
- IC50 (SGC-7901 [1]): 4.47 µM
Structure (SMILES): COc1cc(-c2nc3scc(-c4ccccc4Cl)n3n2)cc(OC)c1OC

- IC50 (HT-1080): 2.91 µM
- IC50 (MCF7): 12.2 µM
- IC50 (SGC-7901 [1]): 4.09 µM
Structure (SMILES): COc1cc(-c2nc3scc(-c4ccc(C(F)(F)F)cc4)n3n2)cc(OC)c1OC

- IC50 (HT-1080): 2.85 µM
- IC50 (MCF7): 4.97 µM
- IC50 (SGC-7901 [1]): 8.11 µM
Structure (SMILES): COc1cc(-c2nc3scc(-c4ccc(F)c(F)c4)n3n2)cc(OC)c1OC

- IC50 (HT-1080): 2.74 µM
- IC50 (MCF7): 4.86 µM
- IC50 (SGC-7901 [1]): 0.78 µM
Structure (SMILES): COc1cc(-c2nc3scc(-c4cccc(F)c4)n3n2)cc(OC)c1OC

- IC50 (HT-1080): 2.31 µM
- IC50 (MCF7): 3.86 µM
- IC50 (SGC-7901 [1]): 0.61 µM
Structure (SMILES): COc1cc(-c2nc3scc(-c4cc(F)cc(F)c4)n3n2)cc(OC)c1OC

- IC50 (HT-1080): 2.18 µM
- IC50 (MCF7): 4.94 µM
- IC50 (SGC-7901 [1]): 0.94 µM
Structure (SMILES): COc1cccc(-c2csc3nc(-c4cc(OC)c(OC)c(OC)c4)nn23)c1

- IC50 (HT-1080): 2.13 µM
- IC50 (MCF7): 3.61 µM
- IC50 (SGC-7901 [1]): 0.82 µM
Structure (SMILES): COc1cc(-c2nc3scc(-c4cccc(N)c4)n3n2)cc(OC)c1OC

- IC50 (HT-1080): 1.71 µM
- IC50 (MCF7): 3.46 µM
- IC50 (SGC-7901 [1]): 0.62 µM
Structure (SMILES): COc1cc(-c2nc3scc(-c4cccc(Br)c4)n3n2)cc(OC)c1OC

- IC50 (HT-1080): 1.65 µM
- IC50 (MCF7): 5.89 µM
- IC50 (SGC-7901 [1]): 7.3 µM
Structure (SMILES): COc1cc(-c2nc3scc(-c4ccccc4F)n3n2)cc(OC)c1OC

- IC50 (HT-1080): 1.53 µM
- IC50 (MCF7): 3.09 µM
- IC50 (SGC-7901 [1]): 0.43 µM
Structure (SMILES): COc1cc(-c2nc3scc(-c4cccc(Cl)c4)n3n2)cc(OC)c1OC

- IC50 (HT-1080): 1.51 µM
- IC50 (MCF7): 2.58 µM
- IC50 (SGC-7901 [1]): 3.66 µM
Structure (SMILES): COc1cc(-c2nc3scc(-c4ccc(C)cc4)n3n2)cc(OC)c1OC

- IC50 (HT-1080): 1.5 µM
- IC50 (MCF7): 3.13 µM
- IC50 (SGC-7901 [1]): 0.75 µM
Structure (SMILES): COc1cc(-c2nc3scc(-c4cccc([N+](=O)[O-])c4)n3n2)cc(OC)c1OC

- IC50 (HT-1080): 1.42 µM
- IC50 (MCF7): 5.41 µM
- IC50 (SGC-7901 [1]): 0.55 µM
Structure (SMILES): COc1cc(-c2nc3scc(-c4cc(C)cc(C)c4)n3n2)cc(OC)c1OC

- IC50 (HT-1080): 1.36 µM
- IC50 (MCF7): 5.26 µM
- IC50 (SGC-7901 [1]): 6.41 µM
Structure (SMILES): COc1cc(-c2nc3scc(-c4ccccc4Br)n3n2)cc(OC)c1OC

From ChEMBL document CHEMBL5370543, “Discovery of 6-aryl-2-(3,4,5-trimethoxyphenyl)thiazole[3,2-b][1,2,4]triazoles as potent tubulin polymerization inhibitors” (Eur J Med Chem, 2023)
